The test system of series [1] is 9 L glioblastoma. The conditions noted are these: for lympho-mononuclear inflammatory cell infiltrates in brain: histopathology, day 20. As for the experimental part:
Rat 9 L glioblastoma cells were obtained from the American Type Culture Collection (Washington, D.C.) and certified as pathogen-free. The cells were maintained in Dulbecco's Modified Eagle's Medium (DMEM) supplemented with 5% fetal calf serum (FCS) and 2 mM glutamine. Antibiotics were not added to the medium. Prior to injection, the cells were rinsed with phosphate-buffered saline (PBS), detached from the culture surfaces and dissociated into single cell suspensions with 0.25% trypsin/0.05% EDTA. The dissociated cells were washed 3 times in serum-free DMEM and finally suspended in serum-free DMEM at a density of 5×10^6 viable cells/ml. Viable cell density was determined using Trypan blue exclusion and a hemocytometer chamber.
An in vivo model of glioblastoma was generated in adult (250-300 grams) Long Evans rats. Rats were anesthetized with a single intraperitoneal injection of a cocktail containing 100 mg/kg ketamine and […] in 50% ethanol. After anesthetization, the head was shaved and prepped with povidone iodine, and the rat was placed in a stereotactic headframe. A midline incision was made and a 3 mm burr hole was drilled over the frontal lobe, and 2 μl of 9 L glioma cell suspension (10,000 cells total) was injected directly into the brain using a Hamilton syringe with attached 26-gauge needle placed at a depth of 3.5 mm. After removal of the needle, the wound was washed with sterile saline, the animal was removed from the frame and the skin was closed with resorbable sutures. The rats were returned to their cages and observed for any signs of deterioration including weight loss, reduced food and water intake, hemiparesis, seizures, or inactivity. If any degree of suffering was observed, the animals were euthanized with 120 mg/kg sodium pentobarbital. Animals were observed daily and weighed weekly.
The tumor was allowed to develop for 5 days, followed by anti-neoplastic treatment. Rats were divided into 6 treatment groups: vehicle control; low (45 μg/kg) thymalfasin; high (200 μg/kg) thymalfasin; low thymalfasin+BCNU; high thymalfasin+BCNC; and BCNU (9.4 mg/kg) only. BCNU was administered as a single intraperitoneal (I.P.) injection on day 6 after the intracerebral tumor inoculation. Rats treated with thymalfasin were given single I.P. injections of thymalfasin for 3 consecutive days, beginning on day 6 after tumor cell inoculation. Rats were sacrificed on day 20 post tumor inoculation. The rats were killed by I.P. injection of 120 mg/kg sodium pentobarbital. The brains were harvested, sectioned, immersion fixed in Histochoice (Amresco Co., Solon, Ohio), and processed for paraffin embedding. Tumor burden was assessed from the gross tissue blocks and the histological sections stained with hematoxylin and eosin. Histological sections were also used in immunohistochemical staining studies to detect inflammatory cell infiltrates.
A semiquantitative histological grading scale was used to assess tumor burden for inter-group comparisons: 0—cure, no residual tumor; 1—microscopic tumor (<1 mm) confined to the superficial cortex; 2—tumor mass occupying less than 25% of the hemisphere cross section (1-2 mm); 3—tumor mass occupying up to 50% of the hemisphere cross section (2-3 mm) and extending into deep structures; 4—massive tumor burden with involvement of 50-90% of the hemisphere cross section, with herniation. The sections were coded and graded simultaneously by two separate individuals without knowledge of treatment group. […]

The subject of series [2] is Rat 9 L glioblastoma cells. Kind of series: MTT assay of mitochondrial function in thymalfasin-treated 9 L cells. The class given is cell-based. The conditions noted are these: 24 hours, various concentrations of thymalfasin, vs vehicle. On the procedure: (§1) All cell lines were kept at 37° C. in a humidified atmosphere containing 5% CO2. The cell lines were obtained from the American Type Culture Collection and were certified as free of pathogens.
(§2) Thymosin alpha 1 treatment: For acute thymalfasin treatment, cells seeded in 96-well plates at a cell density of 20,000 cells/well were treated with 10^−5 M thymalfasin for 24 hours. Cells treated chronically with thymalfasin were grown in flasks and treated every 24 hours with 10^−5 M thymalfasin (added to fresh medium) for the duration of the treatment (3 days). In addition, for the determination of a dose-response curve to thymalfasin for 9 L cells, cells were treated with serially diluted amounts of thymalfasin, yielding thymalfasin concentrations ranging from 50 µM to […].
(§3) MTT assays were conducted on 9 L and 293 cell lines to determine the effects of thymalfasin treatment and/or H2O2-induced oxidative stress on the mitochondrial function of the cells. After treatment, 10 μl of MTT solution were added to each well containing 100 μl of medium. The plates were incubated with the MTT dye in the 37° C. incubator for 15 min-1 hour, depending on the cell type. The medium was then removed, and 200 μl of acidic Isopropanol was added to each well. The plates were shaken at room temperature until cell lysis occurred, and then read in a Packard SpectraCount™ machine at 540 nm.

Series [3] concerns Rat 9 L glioblastoma cells. Kind of series: Crystal violet (CV) cell viability assay in thymalfasin-treated 9 L cells. The class given is cell-based. The conditions noted are these: thymalfasin vs vehicle-treated control. On the procedure:
as §1, §2
Crystal Violet (CV) was also used to stain cells in 96-well plates. After discarding the medium, 20 μl of crystal violet was added to each well and shaken at room temperature for 10 minutes. The plates were then washed several times with warm water and dried. 100-200 μl (depending on cell density) of PBS w/1% SDS was added to each well. The plates were incubated at room temperature on a shaker until the cells were sufficiently lysed. The plates were read at 540 nm to detect differences in cell viability between the various groups tested.

Series [4] has as its system 9 L glioblastoma cells. Kind of series: Microtiter immunocytochemical ELISA (MICE) assay of pro-apoptosis/survival gene products, 9 L cells. The class given is cell-based, rat. As for the experimental part:
(§4) Microtiter Immunocytochemical ELISA (MICE) Assays (de la Monte, 1999) were done on 9 L and 293 cells. Cells were seeded in 96-well plates, treated with 10^−5M thymalfasin for 24 hours, and histofixed overnight prior to analysis using MICE assay. the fixed cells were permeabilized with 0.05% saponin in Tris-buffered saline (50 mM Tris, pH 7.5, 0.9% NaCl; TBS), blocked with Superblock-TBS (Pierce, Rockford, Ill.), and then incubated overnight at 4° C. with primary antibodies to proliferating cell nuclear antigen (PCNA), bcl-2, p21/Wwaf-1, p53, FasL, FasR, TNF-R1, or GAPDH, each diluted to 0.5-1 μg/ml in TBS containing 0.05% Tween-20 and 0.5% bovine serum albumin (TBST-BSA). Immunoreactivity was detected using horseradish peroxidase conjugated secondary antibody (Pierce, Rockford, Ill.) and the TMB soluble substrate (Pierce, Rockford, Ill.). Reactions were stopped by the addition of 1 M H2SO4 and absorbances were measured at 450 nm in a Spectracount microplate reader (Packard Instrument Co., Meriden, Conn.). Subsequently, cell density was measured by staining the adherent cells with Coomassie blue dye and measuring the absorbance of the eluted dye (de la Monte, 1999). The MICE index was the calculated ratio of TMB and Coomassie blue absorbance measured in the same culture well. Mean±S.D. of results obtained from 16 replicate culture wells were used for inter-group statistical comparisons.
(§5) In this regard, the expression of gene products that promote either apoptosis or cell survival were examined, using housekeeping gene expression as control. The studies were performed in 96-well plates using the microtiter immunocytochemical ELISA […] assay to generate data from multiple replicate cultures. […] Thus, the results of the MICE assays indicate that for the two cell lines, thymalfasin works via different pathways to increase the susceptibility of the cells to cell death by apoptosis.
For orientation: In an ELISA, binding on a coated surface is turned into a signal by an enzyme label.

The test system of series [5] is 293 human kidney cells. Kind of series: Microtiter immunocytochemical ELISA (MICE) assay of pro-apoptosis/survival gene products, 293 cells. The class given is cell-based. On the procedure: as §4, §5
In series [6] the test system is 9 L glioblastoma cells. Kind of series: H2O2-induced oxidative stress sensitivity of thymalfasin-treated 9 L cells (MTT). The class given is cell-based, rat. On the procedure: H2O2 was used with cells to induce oxidative stress. […] In the experiments in which serially diluted amounts of thymalfasin were administered to the cells, a constant amount of the […] H2O2 was used to treat the cells. For 9 L cells, an H2O2 curve was developed in order to determine the correct H2O2 concentration with which to treat the cells.
as §3
Validation of the ability of thymalfasin to increase the susceptibility of 9 L and 293 cells to apoptosis was sought testing H2O2-induced oxidative stress. As determined through MTT assays, 9 L cells treated with thymalfasin for 24 hours and subsequently H2O2 for 24 hours did indeed show significant loss in viability in comparison to 9 L cells treated only with H2O2 for 24 hours (FIG. 3).

Series [7] has as its system 9 L glioblastoma cells. Kind of series: BCNU-mediated killing of thymalfasin-treated 9 L cells. The class given is cell-based, rat. The conditions noted are these: 24 or 72 hours thymalfasin treatment.
In series [8] the test system is 9 L glioblastoma cells. Kind of series: Streptolysin O + recombinant Granzyme B killing assay (ATPlite viability). The class given is cell-based, rat. The conditions noted are these: thymalfasin 24 h (acute) or 72 h (chronic), then SLO+Granzyme B 1 or 3 hours, p<0.001. As for the experimental part: In order to determine the differential susceptibility of 9 L glioblastoma cells treated (or not) with thymalfasin to cytotoxic T-lymphocyte (CTL) induced apoptosis, experimental assays were conducted in which 9 L cells were treated both acutely for 24 hours and chronically for 72 hours with thymalfasin, after which they were harvested, re-seeded into 96-well black plates (7.5×10^5 cells/75 μl/well), and exposed to 20,000 units/ml Streptolysin O (SLO) plus 100 ng recombinant Granzyme B (reaction volume 100 μl) for 1 or 3 hours at 37° C. The SLO was used in place of perforin to permeabilize the cells, and recombinant Granzyme B was used to standardize the assay. Control studies included parallel reactions in which SLO, Granzyme B, or both were omitted. Viable cell density was measured using the ATPlite assay (Packard Instrument Company, Meriden, Conn.) which has a broad linear dynamic range correlating relative light units with cell densities between 10^3 to 10^6 cells per culture well.
In vivo, malignant neoplastic cells are killed by cytotoxic T cells and macrophages that are recruited by pro-inflammatory cytokines such as IL-2 and IL-12. […] Viability was measured using the ATP luminescence assay and within group comparisons were made to determine the relative killing associated with SLO+Granzyme B treatment. […]

Series [9] relates to Primary neuronal cortical cells. Kind of series: Cell viability of primary cortical neuron cultures (CV and MTT). The class given is cell-based. The text has this:
Primary cortical neuron cultures were studied to enable selection of thymalfasin doses that would not be toxic to non-neoplastic brain cells.
However, this dose is higher than established experimental and clinical dosages.

For series [10] the following is noted: cited from earlier work.
Where [11] appears, read: 10^-5 M thymalfasin, 24 hours, P<0.01.

Where “and” joins values, the source holds several entries; their conditions need not be identical. Equal values may be shown once. Entries after “also recorded” stand apart in the source; their conditions may differ. No end group written: not given here. A value given as a limit tells only on which side of the number the result lay.

Regarding `O=NN(CCCl)C(=O)NCCCl` [BCNU, bischloroethyl nitrosurea], in series [1] (BCNU 9.4 mg/kg I.P. single dose, nearly half the group showed no response), the “reduction of tumor burden in responding animals” value was “up to 50%”. The “lympho-mononuclear inflammatory cell infiltrates in brain” value in series [1] was “scant”.
Regarding “Thymosin α-1 (SDAAVDTSSEITTKDLKEKKEVVEEAEN; ends and bridges not checked; UniProt P06454 2-29, looked up) [thymalfasin, 28-amino acid peptide, a synthetic form of a naturally occurring compound that is found in circulation]”, the “cell mitochondrial functioning (MTT)” value in series [2] is “minimal effect; also recorded: insignificant decrease; also recorded: no direct effect”. For the same compound, the “cell viability / direct cytotoxic effect” value in [3] is “minimal effect; also recorded: no significant direct cytotoxic effects; also recorded: no direct effect”. In series [4] (setting [11]), the “increase in FasL level relative to vehicle-treated controls” value stood at 65.89%, the “increase in FasR level relative to vehicle-treated controls” value is listed as 44.08% and the “increase in TNF-R1 level relative to vehicle-treated controls” value is on record as 22.18%. In [4] (thymalfasin 24 hours), the GAPDH expression level entry is on record as “not significantly affected” and the bcl-2 expression level result is on record as “not significantly affected”. Besides, in [5] (data not shown), the “change in FasL expression” value is reported as “no significant changes”, the “change in FasR expression” value is on record as “no significant changes” and the “change in TNF-R1 expression” value is recorded as “no significant changes”. Also, the “reduction in bcl-2” value in series [5] (thymalfasin, P<0.01, data not shown) turned out to be 36.67%. Moreover, the “decrease in mitochondrial functioning (MTT) vs cells treated only with H2O2” value in series [6] (9 L cells, thymalfasin 24 hours then 270 μM H2O2 24 hours) was 26.6%. Besides, the “9 L cells killed by ordinarily non-lethal (sub-lethal) H2O2 after thymalfasin treatment” value in series [6] (24 or 72 hours thymalfasin treatment) was 25% and 30-50%. Also, the “9 L cells killed by sub-lethal concentrations of BCNU after thymalfasin treatment” value in series [7] was determined as 40%. Besides, the “cell viability after SLO+Granzyme B relative to SLO, Granzyme B or vehicle alone” value in series [8] was “significant reductions in cell viability”. The “decrease in viability (MTT) of primary neuronal cortical cells” value in series [9] (highest concentration of thymalfasin used (3.3×10^−7M as printed)) came out at 30%. In addition, the “cell viability of primary neuronal cortical cells” value in series [9] (serial dilutions, 3.3×10^−5 M to 1×10^−9 M, experimental doses) is recorded as “no decrease in cell viability”. Further, the “tumor burden / tumor growth” value in series [1] (Long Evans rats, 10,000 9 L cells intracerebral, I.P. treatment from day 6, sacrifice day 20, BCNU 9.4 mg/kg, thymalfasin 45 or 200 μg/kg) is recorded as “the same as control or worse”. The “lympho-mononuclear inflammatory cell infiltrates in brain” value in [1] is reported as “conspicuous”. Also, the “intracerebral swelling and herniation” value in series [1] (rat, in vivo) is recorded as “extreme intracerebral swelling”. For the same compound, the “dose found to be safe for humans” value in [10] was ≤ 16 mg/kg body weight/day.

Source of the values: US20060166870A1, “Treatment of glioblastoma with thymosin-alpha 1” (Rhode Island Hospital, priority 2001, published 2006).
